Laboratory results published in US11124536B2, “Uridine nucleoside derivatives, compositions and methods of use” (Tufts University, priority 2013, dated 2021).
Entries after “also recorded” stand apart in the source; their conditions may differ.

Tests used:
P2Y6 receptor = biological target: T1, P2Y6 receptor (Homo sapiens, UniProt Q15077); experiment: Activation of P2Y6 receptor: receptor-induced Ca2+ changes with fluo-4; format: cell-based
T1 construct: expressed in transfected cells; host or cells: 1321N1 human astrocytoma cells
Protocol: Synthetic ligands were tested for activation of P2Y6 receptor by measuring receptor induced Ca^2+ changes with the fluorescent Ca^2+ indicator fluo-4. 1321N1 human astrocytoma cell lines either expressing P2Y2, P2Y4 or P2Y6 receptors were plated into 24-well plates. Two days after plating, fluorometric measurements were made and responses of cells to a serial dilution of ligands were determined. P2Y6 receptor mediated Ca^2+ fluorescent change was determined by normalized accumulation of fluorescent change of 3 timepoints after ligand administration subtracted by value from ACSF control. Changes in fluorescent intensity were plotted corresponding to ligand concention in GraphPad. Dose-response curve and EC50 for each ligand was estimated using nonlinear curve fit and Sigmoidal dose-response analysis. […]
Synthetic ligands were tested for activation of P2Y6 receptor by measuring receptor induced Ca^2+ changes with the fluorescent Ca^2+ indicator fluo-4, and results are shown in FIG. 10(A)-(K). […] Two days after plating, fluorometric measurements were made and responses of cells to a serial dilution of ligands were determined. P2Y6 receptor mediated Ca^2+ fluorescent change was determined by normalized accumulation of fluorescent change of 3 timepoints after ligand administration subtracted by value from ACSF control. […]

human THP-1 cells = experiment: Cytokine release from THP-1 cells into culture medium (multiplex cytokine analysis); format: cell-based
Protocol: THP-1 cells, a human cell line derived from monocytes, were treated in vitro with vehicle, the P2Y6 receptor antagonist MRS 2578, or compound 5, singly or in combination. THP-1 cells were seeded in 24 well plates at a density of 4×10^5 cells/well in culture medium for 24 hours. Thereafter, vehicle, compound 5, or MRS 2578 (singly or in combination) were added to the cultures for 24 hours. Subsequently the culture medium was aspirated and subjected to multiplex cytokine analysis. Data are presented as means+/−sem. MRS 2578 has a molecular weight of about 472 and is also described using CAS number 711019-86-2.

PSAPP mice [1] = experiment: Postmortem immunohistochemistry of amyloid beta plaque load in cortex and hippocampus; format: in vivo
Protocol: Mice were perfused transcardially with 4% paraformaldehyde and 40 μm Coronal sections were collected. Sections were sequentially incubated in 0.3% H2O2 for 10 minutes, blocking solution for 2 hrs, blocking solution containing the primary antibody (rabbit anti-beta1-42; rabbit anti-beta1-40, from Chemicon International and rat anti-CD45) for 48 hours at 4° C., and blocking solution containing biotinylated antibody or fluorescently-labeled antibody for 2 hours at room temperature. Sections were visualized in a bright field microscope or a confocal microscope, and the optical density was obtained using MetaMorph software.
To generate these graphs showing plaque load, mice were euthanized, brain sections cut and antibodies directed against Aβ 42 were used to disclose Aβ plaques. Images were acquired digitally and an algorithm was applied to threshold the image so that plaques were isolated from the background. The algorithm then calculated the percent area of the field of view occupied by the plaques.
Brain samples were collected for Abeta analysis with immunostaining. Brains samples were collected after transcardial perfusion with phosphate buffer and 4% paraformaldehyde. Floating brain sections (40 micron) were collected using a microtome. Immunostaining for Aβ40 and Aβ42 were performed according to previously established protocol. Images with DAB staining were collected with brightfield microscopy and analyzed with ImageJ Macro. All data analysis and statistics were performed in GraphPad Prism 6.0.

PSAPP mice [2] = experiment: Hippocampal long-term potentiation (LTP) recording, CA1; format: in vivo
Protocol: Hippocampal slices (350 μm thick) were prepared from 6-month-old PSAPP mice. Baseline responses were obtained every 10 seconds and Input-output (I/O) curves, paired-pulse modification and LTP were successively measured. The stimulation intensity was set to a level that gives a value of 30% of the maximum obtained. LTP were induced by high frequency stimulation (HFS, 100 pulses at 100 Hz, four times) or by theta-burst stimulation (TBS, 10 bursts at 5 Hz, repeated 10 times in 15 s intervals).
Accumulated evidence has shown that amyloid peptides naturally secreted or isolated from Alzheimer's brains impair synaptic plasticity, especially hippocampal long-term potentiation (Walsh et al., 2002). Therefore, we further performed LTP recordings in PASPP mice and investigated whether P2Y6 receptor-mediated plaque clearance affects synaptic plasticity. […] First, it was observed that LTP at the schaffer collateral synapse within the CA1 region was depressed in PSAPP mice, as compared with littermates (FIG. 8(A)).

PSAPP mice [3] = experiment: Two-photon in vivo imaging of methoxyX04-labeled amyloid plaques in barrel cortex; details: UDP vs ACSF
From the text: In this study, PSAPP mice were anesthetized using isoflurane and a thin-skull preparation was used to minimize the surface damage. Amyloid plaques were visualized with methoxyX04 labeling and blood plasma was labeled with Rhodamine dextran to facilitate re-localization of the same imaging area. Stack images were obtained using a two-photon system (Prairie Technologies) with excitation at 850 nm. The emission was detected by external photomultiplier tubes (525/70; DLCP 575; 607/45 nm).
Animals were anesthetized and immobilized in a stereotaxic frame. For each injection, 1 μl of 10 mM UDP or other suitable compounds in artificial cerebrospinal fluid (ACSF) as the vehicle were injected intraventricularly using the following coordinates: AP 0.2 mm, ML 1 mm, and DV 2.2 mm.
To evaluate the effect of UDP on plaque burden, two-photon microscopy was used to assess the amyloid plaques in the barrel cortex in living PSAPP mice. Amyloid plaques were stained by systemically administered methoxy-X04. One day prior to imaging, PSAPP mice were injected with methoxyX04 to label the amyloid plaques. On the imaging day, to facilitate the re-location of the same imaging area, blood plasma was labeled with Rhodamine dextran. Images were obtained from the same start- and end-point to ensure the same image volume. […]

PSAPP mice [4] = experiment: Contextual fear conditioning test (freezing %); format: in vivo
Protocol: On day one, animals were trained in a fear conditioning apparatus for a total of 7 minutes with a two-pairing paradigm of cue and mild foot shock (a 30-s acoustic-conditioned stimulus, 80 dB; a 2-s shock stimulus, 0.5 mA). To evaluate contextual fear learning, the animals were returned to the training context 24 hours post-training, and freezing behavior was scored for 5 minutes. Freezing behavior was monitored by MotorMonitor (Hamilton Kinder) and scored every 5 seconds.
This represents a decrease in the cognitive impairment observed in the untreated mice.

T1 sequence (Q15077 whole entry): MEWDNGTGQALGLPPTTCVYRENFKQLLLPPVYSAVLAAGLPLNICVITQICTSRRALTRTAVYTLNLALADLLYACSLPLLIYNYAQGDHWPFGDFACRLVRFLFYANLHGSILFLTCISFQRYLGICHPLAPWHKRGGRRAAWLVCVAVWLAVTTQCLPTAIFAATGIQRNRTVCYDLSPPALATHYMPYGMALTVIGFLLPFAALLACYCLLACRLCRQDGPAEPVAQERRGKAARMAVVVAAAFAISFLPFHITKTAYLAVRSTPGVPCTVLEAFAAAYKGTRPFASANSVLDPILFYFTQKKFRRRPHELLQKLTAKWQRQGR

SMILES: S=C=Nc1cccc(NC(=S)NCCCCNC(=S)Nc2cccc(N=C=S)c2)c1 [MRS 2578]
- effect of antagonist on Ca2+ signals elevated by the sodium salt of the diphosphate derivative of compound 5 (P2Y6 receptor; P2Y6 receptor expressing 1321N1 cells): attenuated
- release of fractalkine, PDGF-BB, and IL-7 (concentration in culture medium) (human THP-1 cells; 24 hours treatment vs vehicle, FIG. 25): increased
- release of IL-7 from human THP-1 cells (human THP-1 cells; MRS 2578 alone, 24 hours, FIG. 26): increased
- effect of co-treatment on the decrease of IL-7/cytokine release caused by compound 5 (human THP-1 cells; compound 5 plus MRS 2578, FIG. 26): blocked; also recorded: abrogated

SMILES: O=c1ccn([C@@H]2O[C@H](COP(=O)(O)OP(=O)(O)O)[C@@H](O)[C@H]2O)c(=O)n1Cc1noc2ccccc12
- elevating Ca2+ levels in cells expressing P2Y6 receptors (P2Y6 receptor; 1321N1 human astrocytoma cells expressing P2Y6): only effective

SMILES: O=c1ccn([C@@H]2O[C@H](COP(=O)(O)OP(=O)(O)O)[C@@H](O)[C@H]2O)c(=O)[nH]1 [UDP, uridine diphosphate]
- decrease in plaque load in the cortex, β1-42 antibody (PSAPP mice [1]; acute UDP i.c.v., P<0.01): 48%
- decrease in plaque load in the hippocampus, β1-42 antibody (PSAPP mice [1]; acute UDP i.c.v., P<0.05): 47%
- decrease in plaque load in the hippocampus, β1-40 antibody (PSAPP mice [1]; acute UDP i.c.v., p<0.01): 62%
- decrease in plaque load in the cortex, β1-40 antibody (PSAPP mice [1]; acute UDP i.c.v., p<0.05): 60%
- LTP deficit at schaffer collateral synapse, CA1 (PSAPP mice [2]; acute UDP vs ACSF, HFS, FIG. 8B): reversed
- field excitatory postsynaptic potential (fEPSP), last 15 min potentiation (PSAPP mice [2]; acute UDP, comparable to littermates, FIG. 8C): significant increase
- day 4/day 1 ratios of plaque load (PSAPP mice [3]; FIG. 2D): significant reductions
- number of plaques (day 4/day 1 ratios) (PSAPP mice [3]; FIG. 2E): significant reductions
- freezing behavior compared to ACSF treatment (PSAPP mice [4]; UDP-treatment 3 days prior to the test, FIG. 7C): significantly improved

SMILES: O=C(Cn1c(=O)ccn([C@@H]2O[C@H](COP(=O)(O)OP(=O)(O)O)[C@@H](O)[C@H]2O)c1=O)c1ccccc1 [3-phenacyl-UDP, reference compound]
- effects on the efficacy endpoint at the higher dose (PSAPP mice [1]; 1 mg/kg, one week of daily treatment): smaller effects
- β1-40 staining after treatment stopped (PSAPP mice [1]; 6 consecutive days i.p. then stopped for 2 weeks (6+2 weeks group), level still lower than saline vehicle): rebounded
- immunoreactivity of β1-40 in cortex (PSAPP mice [1]; i.p. for 4 and 6 consecutive days, FIG. 6A): significantly decreased
- immunoreactivity of β1-40 in hippocampus (PSAPP mice [1]; i.p. for 4 and 6 consecutive days, FIG. 6B): significantly decreased
- total freezing percentage in context test (PSAPP mice [4]; chronic injection, two different doses): increased
- memory deficit (contextual fear conditioning) compared to vehicle (PSAPP mice [4]; one week treatment with 1 μg/kg, FIG. 9C): rescued the memory deficit
